Test results published in patent publication US4624950A, “Method for treating atherosclerosis hyperlipidema, lipid deposition on arterial walls, or raising the ratio of high density lipoprotein cholesterol to total cholesterol in serum” (Nissan Chemical Industries Ltd., priority 1983, dated 1986).

What was measured:
[1] = tested on: Triton-induced hyperlipidemic rats; test: Antihyperlipidemic activity in Triton-induced hyperlipidemic rats, method A (24 hours) (Test 2); format: in vivo, rat (male S.D.)
Experimental: Cholesterol in serum was measured by means of a cholesterol measuring kit (Cholesterol C-Test Wako, manufactured by Wako Junyaku Co., Ltd.), and cholesterol in HDL was measured by means of NC Hi-Set, manufactured by Nippon Chemiphar Co., Ltd. The quantitative analysis of triglyceride was conducted by means of a triglyceride measuring kit (Triglyceride C-II-Test Wako, manufactured by Wako Junyaku Co., Ltd.). Further, the change rate in the following Tables, was calculated by the following equation. Change rate(%)=(A-B/A)×100 where A is the amount of serum lipids (mg/dl) of the control group, and B is the amount of serum lipids (mg/dl) of the group to which the therapeutic agent was administered. The antihyperlipidemic activity in Triton-induced hyperlipidemic rats Male S.D. rats weighing 230-250 g (7 weeks old) were divided into groups of 5 rats each and injected with a physiological saline solution of Triton Wr-1339 in a dose of 250 mg/kg (5 ml/kg) i.v. through the tail vein. […] The test compounds suspended in 0.5% CMC-Na were given to the rats in an amount of 2 ml/kg via stomach tube 1 hour before and 5 hours after (in the case of method A) or 1 hour before and 23 hours after (in the case of method B) the injection of Triton solution. Control rats received the same volume of the vehicle. The animals were fasted during the experimental period. The total cholesterol and triglyceride in the serum were measured.

cytochrome P-450 = test: Effect on cytochrome P-450 / hepatic drug metabolizing systems of normal rats (Test 5); format: in vivo, rat (male S.D.); conditions: 300 mg/kg/day, seven days
Experimental: The activities against serum lipid, the degree of hepatomegaly and the hepatic drug metabolizing systems of normal rats
Male S.D. rats (6 weeks old) were divided into groups of 5 rats each. The test compounds suspended in 5% gum arabic were given to the rats once a day for seven days in a daily dose of 300 mg/kg. Then, the rats were fasted for one day, blood samples were taken, and the total cholesterol, triglyceride, HDL-cholesterol in the serum were quantitatively analyzed. Further, the liver weight was measured, and the degree of hepatomegaly was determined by comparing the weight ratio per 100 g of the body weight with that of the control group. Furthermore, GOT and GPT values were measured, and the activities of cytochrome P-450 and glutathione related enzymes were also measured. These values were compared with those of the control groups to investigate any abnormality.

`CN1C(=S)SC(c2ccccc2)N(C)C1c1ccccc1` (stereo not shown) [Compound of the formula I, 3,5-dimethyl-4,6-diphenyl-tetrahydro-2H-1,3,5-thiadiazine-2-thione] was tested, and the “Change rate after 24 hours, Chol” value ([1]; 150 mg/kg p.o.) was -6.0%, the “Change rate after 24 hours, TG” value ([1]; 150 mg/kg p.o.) was “+21.8%” and the “Lipid reducing activity (in words)” value ([1]; method A) was “no lipid reducing activity was observed”. The “Abnormalities in activity against cytochrome P-450 or other liver microsome drug metabolizing systems (in words)” value (cytochrome P-450) was “no abnormalities were observed”.
